Converted amounts (≈) assume the structure as drawn. Counter-ions that a name gives are not always drawn. Like-named read-outs stand apart in the source and are kept apart here.
How the values were obtained:
[1] = tested on: Mycobacterium tuberculosis H37Rv; assay: Mycobacterium tuberculosis H37Rv Inhibition Assay; format: cell-based
[2] = tested on: E. coli 120 AcrAB-; assay: Antimicrobial Activity Assay, whole-cell broth microdilution (CLSI M7-A7); format: cell-based; conditions: Escherichia coli, read-out: lowest MIC
Protocol: Whole-cell antimicrobial activity was determined by broth microdilution using the Clinical Laboratory Standards Institute (CLSI) recommended procedure, Document M7-A7, “Methods for Dilution Susceptibility Tests for Bacteria that Grow Aerobically”.
In addition, compounds were evaluated against a panel of Gram-negative organisms including Haemophilus influenzae, Moraxella catarrhalis, Escherichia coli,
The minimum inhibitory concentration (MIC) was determined as the lowest concentration of compound that inhibited visible growth. A mirror reader was used to assist in determining the MIC endpoint.

[3] = ATCC 25618 / H37Rv, H37Rv strain (ATCC25618), Middlebrook 7H9, resazurin fluorescence, read-out: MtB MIC

With O=c1ccc2ncc(=O)n3c2n1C[C@@H]3CN1CCC(NCc2ccc(Cl)c(Cl)c2)CC1 [Example 47, (2S)-2-[(4-{[(3,4-dichlorophenyl)methyl]amino}-1-piperidinyl)methyl]-1,2-dihydro-3H,8H-2a,5,8a-triazaacenaphthylene-3,8-dione] the MIC [1, 3] was 0.072 µg/mL (≈ 0.156 µM).
In the case of Cc1ccc(CNC2CCN(CC3Cn4c(=O)ccc5ncc(=O)n3c54)CC2)cc1[N+](=O)[O-] (centres unmarked) [Example 23, 2-[(4-{[(4-methyl-3-nitrophenyl)methyl]amino}-1-piperidinyl)methyl]-1,2-dihydro-3H,8H-2a,5,8a-triazaacenaphthylene-3,8-dione], the MIC [1, 3] is reported as 0.036 µg/mL (≈ 0.0799 µM).
For CCc1ncc(CNC2CCN(C[C@@H]3Cn4c(=O)ccc5ccc(=O)n3c54)CC2)cc1F [Example 54, (1R)-1-[(4-{[(6-ethyl-5-fluoro-3-pyridinyl)methyl]amino}-1-piperidinyl)methyl]-1,2-dihydro-4H,9H-imidazo[1,2,3-ij]-1,8-naphthyridine-4,9-dione], the MIC [1, 3] was 2.19 µg/mL (≈ 5 µM).
With O=c1ccc2ncc(=O)n3c2n1CC3CN1CCC(NCc2ccc(C(F)(F)F)nn2)CC1 (centres unmarked) [Example 17, 2-{[4-({[6-(trifluoromethyl)-3-pyridazinyl]methyl}amino)-1-piperidinyl]methyl}-1,2-dihydro-3H,8H-2a,5,8a-triazaacenaphthylene-3,8-dione] the MIC [1, 3] was 0.865 µg/mL (≈ 1.87 µM).
CC(=O)OCc1ccc(CNC2CCN(C[C@@H]3Cn4c(=O)ccc5ccc(=O)n3c54)CC2)cc1Cl [Example 71, (2-chloro-4-{[(1-{[(1R)-4,9-dioxo-1,2-dihydro-4H,9H-imidazo[1,2,3-ij]-1,8-naphthyridin-1-yl]methyl}-4-piperidinyl)amino]methyl}phenyl)methyl acetate] was tested, and the MIC ([1]; H37Rv inhibition assay, read-out: MIC value) was over 1 µg/mL.
Cc1cc(CNC2CCN(CC3Cn4c(=O)ccc5ncc(=O)n3c54)CC2)sc1Br (centres unmarked) [Example 24, 2-[(4-{[(5-bromo-4-methyl-2-thienyl)methyl]amino}-1-piperidinyl)methyl]-1,2-dihydro-3H,8H-2a,5,8a-triazaacenaphthylene-3,8-dione] showed an MIC [1, 3] of 0.077 µg/mL (≈ 0.157 µM).
With Cc1ncc(CNC2CCN(C[C@@H]3Cn4c(=O)ccc5ncc(=O)n3c54)CC2)cc1Br [Example 51, (2R)-2-[(4-{[(5-bromo-6-methyl-3-pyridinyl)methyl]amino}-1-piperidinyl)methyl]-1,2-dihydro-3H,8H-2a,5,8a-triazaacenaphthylene-3,8-dione hydrochloride] the MIC ([1]; ATCC 25618 / H37Rv, read-out: MtB MIC) was 0.015 µg/mL.
With O=c1ccc2ncc(=O)n3c2n1CC3CN1CCC(NCc2cncc(Cl)c2)CC1 (centres unmarked) [Example 42, 2-[(4-{[(5-chloro-3-pyridinyl)methyl]amino}-1-piperidinyl)methyl]-1,2-dihydro-3H,8H-2a,5,8a-triazaacenaphthylene-3,8-dione] the MIC [1, 3] was 1.07 µg/mL (≈ 2.5 µM).
Cl.O=c1ccc2ncc(=O)n3c2n1C[C@H]3CN1CCC(NCc2ccc(C(F)(F)F)nc2)CC1 [Example 46, (2R)-2-{[4-({[6-(trifluoromethyl)-3-pyridinyl]methyl}amino)-1-piperidinyl]methyl}-1,2-dihydro-3H,8H-2a,5,8a-triazaacenaphthylene-3,8-dione hydrochloride] gave an MIC [1, 3] of 0.078 µg/mL.
O=c1ccc2ncc(=O)n3c2n1CC3CN1CCC(NCc2ccc([N+](=O)[O-])cc2)CC1 (centres unmarked) [Example 38, 2-[(4-{[(4-nitrophenyl)methyl]amino}-1-piperidinyl)methyl]-1,2-dihydro-3H,8H-2a,5,8a-triazaacenaphthylene-3,8-dione] showed an MIC [1, 3] of 0.273 µg/mL (≈ 0.625 µM).
In the case of O=c1ccc2ccc(=O)n3c2n1C[C@H]3CN1CCC(NCc2cnc(CO)c(Cl)c2)CC1 [Example 56, (1R)-1-{[4-({[5-chloro-6-(hydroxymethyl)-3-pyridinyl]methyl}amino)-1-piperidinyl]methyl}-1,2-dihydro-4H,9H-imidazo[1,2,3-ij]-1,8-naphthyridine-4,9-dione], the MIC [1, 3] is reported as 0.3 µg/mL (≈ 0.658 µM).
With Cc1cc(CNC2CCN(C[C@@H]3Cn4c(=O)ccc5ccc(=O)n3c54)CC2)cnc1C#N [Example 32, 5-{[(1-{[(1R)-4,9-dioxo-1,2-dihydro-4H,9H-imidazo[1,2,3-ij]-1,8-naphthyridin-1-yl]methyl}-4-piperidinyl)amino]methyl}-3-methyl-2-pyridinecarbonitrile] the MIC [2] was 4 µg/mL (≈ 9.29 µM) and the MIC [1, 3] was 0.538 µg/mL (≈ 1.25 µM).
O=c1cnc2ccc(=O)n3c2n1C[C@H]3CN1CCC(NCc2ccc(Cl)c(Cl)c2)CC1 [Example 10, (1R)-1-[(4-{[(3,4-dichlorophenyl)methyl]amino}-1-piperidinyl)methyl]-1,2-dihydro-3H,8H-2a,5,8a-triazaacenaphthylene-3,8-dione] was tested, and the MIC [1, 3] was under 0.02 µg/mL.
Cc1ncc(CNC2CCN(C[C@@H]3Cn4c(=O)ccc5ccc(=O)n3c54)CC2)cc1Br.Cl [Example 12, (1R)-1-[(4-{[(5-bromo-6-methyl-3-pyridinyl)methyl]amino}-1-piperidinyl)methyl]-1,2-dihydro-4H,9H-imidazo[1,2,3-ij]-1,8-naphthyridine-4,9-dione hydrochloride] was tested, and the MIC [1, 3] was under 0.019 µg/mL.
In the case of Cl.O=c1ccc2ncc(=O)n3c2n1CC3CN1CCC(NCc2ccc(Cl)c(Cl)c2)CC1 (centres unmarked) [Example 36, 2-[(4-{[(3,4-dichlorophenyl)methyl]amino}-1-piperidinyl)methyl]-1,2-dihydro-3H,8H-2a,5,8a-triazaacenaphthylene-3,8-dione], the MIC [1, 3] is reported as 0.015 µg/mL.
Compound Cl.N#Cc1cc(CNC2CCN(C[C@@H]3Cn4c(=O)ccc5ncc(=O)n3c54)CC2)ccc1F [Example 5, 5-{[(1-{[(2R)-3,8-dioxo-1,2-dihydro-3H,8H-2a,5,8a-triazaacenaphthylen-2-yl]methyl}-4-piperidinyl)amino]methyl}-2-fluorobenzonitrile hydrochloride] has an MIC [1, 3] of 0.11 µg/mL.
